Results on 22 molecules are retold here after ChEMBL document CHEMBL1201862, “PubChem BioAssay data set” (2004).

Test systems include KM-20L2; SNB-78; DMS-114; XF498; DMS-273; LXFL 529; DLD-1; HOP-18; RXF 631.
Holding throughout (experiment): DTP human tumour cell line panel, 48 h

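Where inhibition never reached the appropriate level, the endpoint shown equals the highest concentration tested. Otherwise, values were interpolated linearly from a five-concentration, 48-hour dose response in 96-well plates. GI50 is the concentration that inhibits growth by half.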 Calls of active or inactive are those of the source. Cut-off read from the data, not from the text of the source: active = GI50 up to about 1.1 µM and inactive = higher.

One may read the GI50 as the concentration that inhibits growth by half. In the case of `Cc1ccc(S(=O)(=O)c2ccc(C)cc2[N+](=O)[O-])c([N+](=O)[O-])c1`, the GI50 in the test with KM-20L2, in the test with SNB-78, in the test with DMS-114, with XF498, with DMS-273 and in the test with LXFL 529 was > 100 µM (inactive) each time.
As for `Cc1ccc(S(=O)(=O)N(/N=C(\N)Oc2ccc(Cl)cc2)C(=N)Oc2ccc(Cl)cc2)cc1`, the GI50 in the test with KM-20L2, with SNB-78, in the test on DMS-114, in the test on DLD-1, with HOP-18 and with XF498 was > 100 µM (inactive) each time. For the same molecule, the GI50 in the test with DMS-273 and in the test with LXFL 529 was > 100 µM (inactive) throughout.
On to `CCOC(=O)N1C/C(=C\c2ccccc2)C(=O)/C(=C/c2ccccc2)C1`, for which the GI50 with KM-20L2 was 7.71 µM (inactive); in the test on SNB-78, 19.8 µM (inactive); in the test on DMS-114, 3.27 µM (inactive); in the test on DLD-1, 2.56 µM (inactive); in the test with HOP-18, 20.3 µM (inactive); with XF498, 12.8 µM (inactive). Also, the GI50 was 2.34 µM (inactive) with DMS-273 and 4.99 µM (inactive) in the test on LXFL 529.
For `COc1ccc(-c2oc3c(OC)c(OC)c(OC)c(O)c3c(=O)c2OC)cc1O`, the GI50 in the test with KM-20L2 was 12.1 µM (inactive); with SNB-78, 0.0735 µM (active); in the test with DMS-114, 0.0277 µM (active); in the test with DLD-1 it was 0.432 µM (active); with RXF 631, 6.07 µM (inactive); with XF498, 0.279 µM (active). The GI50 with DMS-273 is < 0.01 µM (active); in the test with LXFL 529, 0.0582 µM (active).
As to `CC1=C(N2CC2)C(=O)c2nc3n(c2C1=O)CCC3O` (configuration not stated), the GI50 in the test with KM-20L2 was 0.804 µM (active); with SNB-78 it was 0.0296 µM (active); with DMS-114, 1.03 µM (active); in the test on DLD-1 it was 1.18 µM (inactive); in the test on HOP-18, 36.6 µM (inactive); with XF498 it was 14.9 µM (inactive). The figures for the GI50 in the test on DMS-273 and with LXFL 529 were 0.469 µM (active) and 0.679 µM (active), respectively.
With `COc1cc(/C=N/N=C(\N)NO)c(Cl)cc1O`, the GI50 was > 100 µM (inactive) with SNB-78, 24.3 µM (inactive) in the test on DMS-114, > 10 µM (inactive) with DLD-1 and > 100 µM (inactive) with LXFL 529.
With `O=C1CCC[C@]2(CCCC(=O)N2)C1`, the GI50 was > 100 µM (inactive) in the test with KM-20L2; > 94 µM (inactive) in the test with SNB-78; > 100 µM (inactive) with DMS-114; > 100 µM (inactive) in the test on DLD-1; > 100 µM (inactive) in the test with HOP-18; > 100 µM (inactive) in the test with RXF 631. The GI50 in the test with XF498, in the test with DMS-273 and with LXFL 529 was > 100 µM (inactive) each time.
As to `O=C1NC(=S)NC(=O)C1=Cc1ccc([N+](=O)[O-])o1`, the GI50 in the test with KM-20L2 is 20.1 µM (inactive); in the test on SNB-78, 23.5 µM (inactive); with DMS-114, 17.8 µM (inactive); in the test with DLD-1 it was 16 µM (inactive); in the test on HOP-18, 20.7 µM (inactive); in the test with RXF 631, 19.3 µM (inactive). Moreover, the GI50 is 31.6 µM (inactive) in the test with XF498, 18.9 µM (inactive) with DMS-273 and 16.5 µM (inactive) in the test on LXFL 529.
For `[O-][S+]1CSSC1`, the GI50 in the test on KM-20L2 is 22.8 µM (inactive); with SNB-78, 20.3 µM (inactive); with DMS-114 it was 4.98 µM (inactive); with DLD-1 it was 18.7 µM (inactive); in the test with HOP-18, 51.4 µM (inactive); in the test on RXF 631, 12.3 µM (inactive). The figures for the GI50 in the test on XF498, with DMS-273 and in the test on LXFL 529 were 15.7 µM (inactive), 10.9 µM (inactive) and 13.5 µM (inactive), respectively.
As for `C=C(COC(C)=O)CC(OC(C)=O)c1ccccc1` (configuration not stated), the GI50 in the test on KM-20L2, in the test on SNB-78, in the test with DMS-114, with DLD-1, in the test on XF498 and in the test on DMS-273 was > 100 µM (inactive) throughout. Moreover, the GI50 in the test on LXFL 529 is > 100 µM (inactive).
For `c1cc(N(CCn2cccn2)CCn2cccn2)cc(N(CCn2cccn2)CCn2cccn2)c1`, the GI50 with KM-20L2 was > 100 µM (inactive); with SNB-78 it was > 100 µM (inactive); in the test with DMS-114 it was > 100 µM (inactive); in the test with DLD-1, > 100 µM (inactive); with RXF 631 it was > 100 µM (inactive); in the test on XF498, 77.6 µM (inactive). Further, the GI50 with DMS-273 and in the test on LXFL 529 was > 100 µM (inactive) throughout.
In the case of `C/C(=C\Cc1cc(O)ccc1O)CCc1c(C)cc(O)c(C=O)c1C` [PANICEIN B3], the GI50 is 39.9 µM (inactive) with KM-20L2; 14.7 µM (inactive) with DMS-114; 21.6 µM (inactive) in the test on DLD-1; 17.8 µM (inactive) with HOP-18; 18.8 µM (inactive) in the test with XF498; 20.6 µM (inactive) in the test with DMS-273. For the same molecule, the GI50 in the test on LXFL 529 is 15.4 µM (inactive).
Regarding `CC(=O)O[C@]12CCCCC1C1(O)C(O)CCCCC12` (some centres not stated), the GI50 in the test with KM-20L2, in the test on SNB-78, in the test on DMS-114, in the test on HOP-18, in the test with DMS-273 and with LXFL 529 was > 100 µM (inactive) throughout.
Consider `O=C1NC2(CCCC2)C2CCCCC12O` (configuration not stated), for which the GI50 with SNB-78, with DMS-114, in the test with DLD-1, in the test on HOP-18, in the test on RXF 631 and in the test on XF498 was > 100 µM (inactive) each time. Also, the GI50 with DMS-273 and in the test on LXFL 529 was > 100 µM (inactive) each time.
Consider `O=C(/C=C/c1ccc(Cl)c(Cl)c1)c1ccccc1Cl`, for which the GI50 is 9.91 µM (inactive) with KM-20L2; 15.5 µM (inactive) in the test with SNB-78; 5.3 µM (inactive) in the test on DMS-114; 5.12 µM (inactive) with DLD-1; 12.7 µM (inactive) in the test on HOP-18; 15.9 µM (inactive) in the test on RXF 631. The GI50 in the test with XF498 was 19.2 µM (inactive); in the test on DMS-273, 6.47 µM (inactive); in the test with LXFL 529, 7.41 µM (inactive).
Take `CC1(C)CC(N2CCN(C3CC(C)(C)NC(C)(C)C3)CC2)CC(C)(C)N1`: the GI50 with KM-20L2, with SNB-78, in the test with DMS-114, with DLD-1, with HOP-18 and with RXF 631 was > 100 µM (inactive) throughout. In addition, the GI50 with XF498, with DMS-273 and with LXFL 529 was > 100 µM (inactive) throughout.
With `COc1cc(C2C(Cl)C(=O)N2n2cnc3ccccc3c2=O)ccc1O` (configuration not stated), the GI50 was > 100 µM (inactive) with KM-20L2; > 100 µM (inactive) with SNB-78; 89.1 µM (inactive) in the test with DMS-114; > 100 µM (inactive) in the test with DLD-1; 56.6 µM (inactive) with HOP-18; > 100 µM (inactive) in the test with DMS-273. In addition, the GI50 in the test on LXFL 529 is > 100 µM (inactive).
As for `Oc1ccncc1-c1cnccc1O`, the GI50 in the test on SNB-78, in the test with DMS-114, in the test on DLD-1, in the test on HOP-18, in the test on DMS-273 and with LXFL 529 was > 100 µM (inactive) in each case.
As to `C#CCN(Cc1ccc2nc(-c3ccccc3)c(N)nc2c1)c1cc(OC)c(OC)c(OC)c1`, the GI50 is 41.3 µM (inactive) in the test on KM-20L2; 22.9 µM (inactive) with SNB-78; 14 µM (inactive) with DMS-114; 30 µM (inactive) in the test on XF498; 22.1 µM (inactive) with DMS-273; 19.3 µM (inactive) with LXFL 529.
Take `Cc1cc(C)cc(NC(=O)CCC(=O)C2CCC/C2=N\NC(=O)C(=O)NN)c1` (configuration not stated): the GI50 in the test on KM-20L2, in the test on DMS-114, in the test on DLD-1, in the test with HOP-18, in the test with RXF 631 and in the test on XF498 was > 100 µM (inactive) in each case. Besides, the GI50 with DMS-273 and with LXFL 529 was > 100 µM (inactive) each time.
Take `COc1cc2c3cc1Oc1c(OC)c(OC)cc4c1[C@@H](Cc1ccc(O)c(c1)Oc1ccc(cc1)C[C@@H]3N(C)CC2)N(C)CC4.c1ccccc1`: the GI50 with KM-20L2 was 5.32 µM (inactive); in the test on SNB-78, 47.1 µM (inactive); in the test on DLD-1 it was 19.1 µM (inactive); with XF498, 11.4 µM (inactive); with DMS-273, 16.3 µM (inactive); in the test with LXFL 529 it was 12.4 µM (inactive).
Regarding `N#CC(=C1C=CC(=NO)C=C1)c1ccc(Cl)cc1`, the GI50 was 19.7 µM (inactive) with KM-20L2; 15.4 µM (inactive) in the test with DMS-114; 14.2 µM (inactive) in the test with DLD-1; 49 µM (inactive) in the test on HOP-18; 6.58 µM (inactive) in the test with DMS-273; 4.97 µM (inactive) in the test with LXFL 529.
